Patent US12649751B2 (Arcus Biosciences, Inc., priority 2022, dated 2026)
pIC50: −log10 of the molar value. Where two headings read alike, the source gives them in different places.

Experiments:
[1] = biological target: HPK1 (Homo sapiens, UniProt Q92918); test: HPK1 Biochemical Assay (ADP-Glo luminescence; low ATP 10 μM or high ATP 200 μM)
[2] = tested on: p-SLP-76 (Ser376) in Jurkat cells; test: pSLP76 Cellular Assay (AlphaLISA SureFire Ultra p-SLP-76 (Ser376), anti-CD3 activated Jurkat cells); assay type: cell-based; details: Homo sapiens, read-out: Cellular Potency
How it was run: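 Jurkat cells, serum-starved overnight in Opti-MEM then in HBSS, preincubated 1 h at 37 °C with 22-point 2-fold compound dilutions, then stimulated with anti-CD3 (0.025 mg/ml added solution) for 45 min. Lysate p-SLP-76 (Ser376) measured by AlphaLISA at 570 nm; IC50 from 4-parameter logistic fit.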

[3] = 2 nM HPK1, 10 μM ATP, read-out: Biochemical Potency (low ATP)
[4] = Jurkat cells, anti-CD3 stimulation, pSLP76
[5] = HPK1 ADP-Glo assay, high ATP (200 μM ATP, 5 nM HPK1), read-out: Biochemical Potency (high ATP)
[6] = pSLP76 (Ser376) AlphaLISA, anti-CD3 activated Jurkat cells
[7] = HPK1 ADP-Glo assay, low ATP (10 μM ATP, 2 nM HPK1), read-out: Biochemical Potency (low ATP)

Sequence of HPK1 (Q92918 whole entry, species assumed): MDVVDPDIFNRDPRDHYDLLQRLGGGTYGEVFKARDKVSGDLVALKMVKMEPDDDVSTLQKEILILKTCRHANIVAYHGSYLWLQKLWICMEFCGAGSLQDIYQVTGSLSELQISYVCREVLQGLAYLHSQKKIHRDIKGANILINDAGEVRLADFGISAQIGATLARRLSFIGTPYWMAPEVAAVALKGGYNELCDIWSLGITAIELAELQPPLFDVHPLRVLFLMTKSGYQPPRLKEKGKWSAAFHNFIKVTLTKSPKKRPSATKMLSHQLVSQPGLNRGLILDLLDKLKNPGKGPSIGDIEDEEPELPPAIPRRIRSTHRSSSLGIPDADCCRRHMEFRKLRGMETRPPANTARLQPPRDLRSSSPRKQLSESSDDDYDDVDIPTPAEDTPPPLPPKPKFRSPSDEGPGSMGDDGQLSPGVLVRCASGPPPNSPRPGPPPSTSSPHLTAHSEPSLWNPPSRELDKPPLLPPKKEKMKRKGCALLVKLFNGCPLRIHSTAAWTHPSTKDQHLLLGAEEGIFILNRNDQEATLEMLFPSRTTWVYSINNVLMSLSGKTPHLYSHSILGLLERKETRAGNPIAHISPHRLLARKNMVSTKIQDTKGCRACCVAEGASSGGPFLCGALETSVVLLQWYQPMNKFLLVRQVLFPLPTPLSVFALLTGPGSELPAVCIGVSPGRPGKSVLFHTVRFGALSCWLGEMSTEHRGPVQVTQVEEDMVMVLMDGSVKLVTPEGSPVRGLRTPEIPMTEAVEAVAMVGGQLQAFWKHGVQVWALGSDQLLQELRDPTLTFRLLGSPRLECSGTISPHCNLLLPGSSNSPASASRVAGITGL

Row | pIC50 [1, 3] | pIC50 [2, 4] | pIC50 [1, 5] | pIC50 [2, 6] | Compound | further results
1 | – | – | > 7.00 | 6.00 to 7.00 | CCN1C[C@@H]2C[C@H]1CN2c1nc(C)cc(Nc2cc3nc(-c4cncc(N5C(=O)OC[C@H]5C)c4)sc3cn2)n1 [Example 295, (4R)-3-{5-[6-({2-[(1S,4S)-5-ethyl-2,5-diazabicyclo[2.2.1]heptan-2-yl]-6-methylpyrimidin-4-yl}amino)-[1,3]thiazolo[5,4-c]pyridin-2-yl]pyridin-3-yl}-4-methyl-1,3-oxazolidin-2-one] | –
2 | – | – | > 7.00 | 6.00 to 7.00 | CCN1C[C@@H]2C[C@H]1CN2c1nc(C)cc(Nc2cc3nc(-c4cccc(CN5CCOC5=O)c4)sc3cn2)n1 [Example 310, (2-{(1S,4S)-5-ethyl-2,5-diazabicyclo[2.2.1]hept-2-yl}-6-methyl-4-pyrimidinyl)(2-{m-[(2-oxo-1,3-oxazolidin-3-yl)methyl]phenyl}-3-thia-1,5-diaza-6-indenyl)amine] | –
3 | – | – | > 7.00 | > 7.00 | Cc1cc(Nc2cc3nc(-c4cccc(C(=O)N(C)CC5CC5)c4)sc3cn2)nc(N2C[C@@H]3C[C@H]2CN3CCO)n1 [Example 558] | –
4 | – | – | > 7.00 | 6.00 to 7.00 | CCN1C[C@@H]2C[C@H]1CN2c1nc(C)cc(Nc2cc3nc(-c4cccc(C(=O)N(C)C5CCN(S(C)(=O)=O)CC5)c4)sc3cn2)n1 [Example 311, N-(1-mesyl-4-piperidyl)-N-methylm-[6-(2-{(1S,4S)-5-ethyl-2,5-diazabicyclo[2.2.1]hept-2-yl}-6-methyl-4-pyrimidinylamino)-3-thia-1,5-diaza-2-indenyl]benzamide] | –
5 | – | – | > 7.00 | 6.00 to 7.00 | Cc1cc(Nc2cc3nc(-c4cccc(C(=O)N(C)C)c4)sc3cn2)nc(N2C[C@@H]3C[C@H]2CN3CC2CC2)n1 [Example 382] | –
6 | – | – | > 7.00 | 4.60 to 5.30 | Cc1cc(Nc2cc3nc(-c4ccn5nccc5c4)sc3cn2)nc(N2C[C@@H]3C[C@H]2CN3C)n1 [Example 377] | –
7 | – | – | > 7.00 | 6.00 to 7.00 | CCOCCN1C[C@@H]2C[C@H]1CN2c1nc(C)cc(Nc2cc3nc(-c4cccc(C(=O)N(C)C)c4)sc3cn2)n1 [Example 489] | –
8 | – | – | > 7.00 | 6.00 to 7.00 | CCN1C[C@@H]2C[C@H]1CN2c1nc(C)cc(Nc2cc3nc(-c4cccc(S(=O)(=O)N5CCCC5)c4)sc3cn2)n1 [Example 341] | –
9 | – | – | > 7.00 | 5.30 to 6.00 | Cc1cc(Nc2cc3nc(-c4cccc(C5CCOCC5)c4)sc3cn2)nc(N2C[C@@H]3C[C@H]2CN3C)n1 [Example 404] | –
10 | – | – | > 7.00 | 6.00 to 7.00 | CCN1C[C@@H]2C[C@H]1CN2c1nc(C)cc(Nc2cc3nc(-c4cccc(C(=O)N5CCOC[C@H]5C)c4)sc3cn2)n1 [Example 527] | –

More lines, now with the values behind:

Row | Compound | pIC50 [1, 3] | pIC50 [2, 4] | pIC50 [1, 5] | pIC50 [2, 6] | further results
11 | CN1C[C@@H]2C[C@H]1CN2c1cccc(Nc2cc3nc(-c4cccc(C(N)=O)c4)sc3cn2)n1 [Example 128, 3-[6-({6-[(1S,4S)-5-Methyl-2,5-diazabicyclo[2.2.1]heptan-2-yl]pyridin-2-yl}amino)-[1,3]thiazolo[5,4-c]pyridin-2-yl]benzamide] | > 7.00 | 6.00 to 7.00 | – | – | –
12 | Cc1cc(Nc2cc3nc(-c4cccc(C(C)(C)O)c4F)sc3cn2)nc(N2C[C@@H]3C[C@H]2CN3C)n1 [Example 401] | – | – | > 7.00 | 6.00 to 7.00 | –
13 | CN1C[C@@H]2C[C@H]1CN2c1cccc(Nc2cc3nc(-c4cccnc4)sc3cn2)n1 [Example 89, 6-[(1S,4S)-5-Methyl-2,5-diazabicyclo[2.2.1]heptan-2-yl]-N-[2-(pyridin-3-yl)-[1,3]thiazolo[5,4-c]pyridin-6-yl]pyridin-2-amine] | > 7.00 | 6.00 to 7.00 | – | – | –
14 | Cc1ccnn1-c1nc2cc(Nc3cccc(N4C[C@@H]5C[C@H]4CN5C)n3)ncc2s1 [Example 205, N-[2-(5-Methyl-1H-pyrazol-1-yl)-[1,3]thiazolo[5,4-c]pyridin-6-yl]-6-[(1S,4S)-5-methyl-2,5-diazabicyclo[2.2.1]heptan-2-yl]pyridin-2-amine] | > 7.00 | 6.00 to 7.00 | – | – | pIC50 ([1]; 5 nM HPK1, 200 μM ATP, read-out: Biochemical Potency (high ATP)): > 7.00
15 | Cc1cc(Nc2cc3nc(-c4ccnc(N5CCCOCC5)c4)sc3cn2)nc(N2C[C@@H]3C[C@H]2CN3CCO)n1 [Example 449] | – | – | > 7.00 | 6.00 to 7.00 | –
16 | COC1CCN(c2cc(-c3nc4cc(Nc5cc(C)nc(N6C[C@@H]7C[C@H]6CN7C)n5)ncc4s3)ccn2)CC1 [Example 456] | – | – | > 7.00 | 5.30 to 6.00 | –
17 | Cc1cccnc1-c1nc2cc(Nc3ccc(C)c(N4C[C@@H]5CCN(C)[C@@H]5C4)n3)ncc2s1 [Example 112, 6-[(3aS,6aS)-1-Methyl-octahydropyrrolo[3,4-b]pyrrol-5-yl]-5-methyl-N-[2-(3-methylpyridin-2-yl)-[1,3]thiazolo[5,4-c]pyridin-6-yl]pyridin-2-amine] | > 7.00 | < 5.30 | – | – | –
18 | CC(=O)N1CCn2ncc(-c3nc4cc(Nc5cc(C)nc(N6C[C@@H]7C[C@H]6CN7C)n5)ncc4s3)c2C1 [Example 569] | – | – | > 7.00 | 6.00 to 7.00 | –
19 | Cc1cccnc1-c1nc2cc(Nc3ccc(C4CCOCC4)c(N4C[C@@H]5C[C@H]4CN5)n3)ncc2s1 [Example 432] | – | – | – | > 7.00 | pIC50 [1, 7]: > 7.00
20 | Cc1cc(Nc2cc3nc(-c4ncc(C)o4)sc3cn2)nc(N2C[C@@H]3C[C@H]2CN3CCO)n1 [Example 359] | – | – | > 7.00 | > 7.00 | –
21 | Cc1ccc(-c2nc3cc(Nc4cccc(N5C[C@@H]6C[C@H]5CN6C)n4)ncc3s2)c(C)n1 [Example 129, N-[2-(2,6-Dimethylpyridin-3-yl)-[1,3]thiazolo[5,4-c]pyridin-6-yl]-6-[(1S,4S)-5-methyl-2,5-diazabicyclo[2.2.1]heptan-2-yl]pyridin-2-amine] | > 7.00 | < 5.30 | – | – | –
22 | Cc1ccc(Nc2cc3nc(-c4cnn(CCC(N)=O)c4)sc3cn2)nc1CN1CCCC1 [Example 37, 3-{4-[6-({5-Methyl-6-[(pyrrolidin-1-yl)methyl]pyridin-2-yl}amino)-[1,3]thiazolo[5,4-c]pyridin-2-yl]-1H-pyrazol-1-yl}propanamide] | > 7.00 | 6.00 to 7.00 | – | – | –
23 | CN1C[C@@H]2C[C@H]1CN2c1nc(Nc2cc3nc(-c4cncc(C(C)(C)O)c4)sc3cn2)cc(C2CCOCC2)n1 [Example 438] | – | – | – | 6.00 to 7.00 | pIC50 [1, 7]: > 7.00
24 | Cc1ccc(Nc2cc3nc(-c4c(F)cccc4F)sc3cn2)nc1CN(C)C [Example 46, N-[2-(2,6-Difluorophenyl)-[1,3]thiazolo[5,4-c]pyridin-6-yl]-6-[(dimethylamino)methyl]-5-methylpyridin-2-amine] | > 7.00 | 5.30 to 6.00 | – | – | –
25 | Cc1cc(Nc2cc3nc(-n4cc(F)cn4)sc3cn2)nc(N2C[C@@H]3C[C@H]2CN3C)n1 [Example 429] | – | – | > 7.00 | 6.00 to 7.00 | –
26 | CN(C)Cc1nc(Nc2cc3nc(-c4ccncc4)sc3cn2)ccc1N1CCOCC1 [Example 5, 6-[(Dimethylamino)methyl]-5-(morpholin-4-yl)-N-[2-(pyridin-4-yl)-[1,3]thiazolo[5,4-c]pyridin-6-yl]pyridin-2-amine] | > 7.00 | > 7.00 | – | – | –
27 | CN(C)Cc1cc(N2CCOCC2)cc(Nc2cc3nc(-c4c(F)cccc4F)sc3cn2)n1 [Example 275, N-[2-(2,6-Difluorophenyl)-[1,3]thiazolo[5,4-c]pyridin-6-yl]-6-[(dimethylamino)methyl]-4-(morpholin-4-yl)pyridin-2-amine] | > 7.00 | < 5.30 | – | – | –
